For test [1], the system named is mouse maximal electroshock seizure (MES) model. Briefly: Maximal electroshock seizure (MES) test, mouse. Format: in vivo. The settings on record: MES, mouse; read-out: Mouse ED50. The source says:
(§1) The MES testing protocol is based on procedures established at the National Institute of Neurological Disorders and Stroke in conjunction with the Anticonvulsant Screening Program (ASP) at the University of Utah (White, H. S., Woodhead, J. H., Wilcox, K. S., Stables, J. P., Kupferberg, H. J and Wolf, H. H. 2002. “General Principles: Discovery and Preclinical Development of Antiepileptic Drugs,” in Antiepileptic Drugs, 5th Edition, R. H. Levy, ed.; R. H. Mattson, B. S. Meldrum, and E. Perucca. Philadelphia, Lippincott Williams & Wilkins.), The goal of the test rapid identification and characterization of the in vivo anticonvulsant activity of any compounds that have been shown active in PC-12 cellular based Rb^+ efflux assay.
(§2) Adult male CF-I albino mice (18-25 g, Charles River Laboratories) are exclusively used for in-house MES screen of compounds. Male Sprague-Dawley albino rats (100-125 g, Charles River Laboratories) are also used to test anticonvulsant compounds. Variability of test outcomes is reduced by using animals of the same sex, age, and weight. Animals are permitted to rest and recover from transit for at least 48 hr prior to experimentation. Animals are used for AED testing only once. In some instances, the animals may be anesthetized prior to blood collection and/or whole brain extraction for pharmacokinetic assay. All animals are maintained and handled as outlined in standard animal care guidelines.
(§3) In the experiments, testing compounds are prepared as suspensions in 0.5% methyl cellulose (Sigma, Cat #M0512, Viscosity 4000 cP at 20° C.) in water, regardless of solubility. Dry powder compounds are initially ground with a glass rod in a test tube in several drops of methyl cellulose to create a paste and to break down any large chunks. After several minutes of grinding, the volume of the suspension is increased to the final concentration desired. The suspension is then sonicated using a Branson sonicator model 3510 in a water bath at room temperature for 15 minutes. Compound suspensions are further vortexed prior to animal dosing. In some of the cases, DMSO is used to initially solubilize compounds in small volumes and then this solution is added to the 0.5% methyl cellulose solution, in order to create more even and less aggregated compound suspensions. The final concentration of DMSO is 3.75%, an amount with no apparent toxicity or neuroprotective effects in our usual rotarod and MES tests. Methyl cellulose/DMSO compound suspensions are identically prepared for intraperitoneally (i.p.) to mice or orally (p.o.) to rat dosing.
Initially the animals are weighed with an electronic scale and then marked. Data recording sheets are generated for each compound assessment. Mice or rats are dosed with the compound suspension at 0.01 mL/g of body weight. The typical injection volume range is between 180-250 μl for mice. […] Rats are p.o. dosed using a flexible feeding tube, typically starting at a compound dose of 5 mg/kg.
A Rodent Electroconvulsive Stimulator (Model 200, Hamit-Darvin-Freesh, Snow Canyon Clinic, Ivins, Utah) is used for MES testing. A 60-Hz alternating current (50 mA for mice; 150 mA for rats) is delivered for 0.2 seconds through corneal electrodes to the mice. A drop of 0.5% tetracaine (Sigma, Cat. #T-7508) solution is placed on the eye prior to current delivery. The electrodes are subsequently placed gently onto the eyes of the animal and the electrical shock is initiated by triggering through a foot-pedal activator. The animals are restrained by hand and gently released as the shock is delivered and the seizure commences. Animals are monitored for hind limb tonic extension as the end point for this test. Current delivery is recorded as a measure of overall seizure-induction potential. Electrical current delivery can vary from approximately 30-55 mA (mice) or 90-160 mA (rats) depending on impedance in the animal and quality of the current delivery (ie. correct placement of the electrodes on the cornea). […]
(In the maximal electroshock model the usual endpoint is tonic extension of the hind limbs.)

Test [2] deals with rat MES model of epilepsy. Briefly: Maximal electroshock seizure (MES) test, rat. The class given is in vivo. The conditions noted are these: MES, rat; read-out: Rat ED50.
Description: as §1, §2, §3
Initially the animals are weighed with an electronic scale and then marked. Data recording sheets are generated for each compound assessment. Mice or rats are dosed with the compound suspension at 0.01 mL/g of body weight. The typical injection volume range is between 180-250 μl for mice. Compounds are dosed by i.p. to mice using a 25 or 22 gauge needle, depending on the viscosity of the suspension. Rats are p.o. dosed using a flexible feeding tube, typically starting at a compound dose of 5 mg/kg.
A Rodent Electroconvulsive Stimulator (Model 200, Hamit-Darvin-Freesh, Snow Canyon Clinic, Ivins, Utah) is used for MES testing. A 60-Hz alternating current (50 mA for mice; 150 mA for rats) is delivered for 0.2 seconds through corneal electrodes to the mice. […] Animals are monitored for hind limb tonic extension as the end point for this test. Current delivery is recorded as a measure of overall seizure-induction potential. […]

For a further test, the target named is KCNQ2/3 (Homo sapiens, UniProt O43525+O43526). Briefly: Two-electrode voltage-clamp in Xenopus laevis oocytes, KCNQ2/3. The conditions noted are these: oocyte expression, at EC75. The class given is cell-based. The procedure: (§4) Female Xenopus laevis extracted ovaries were purchased from eNASCO (LM00935MX, eNASCO Fort Atkinson, Wis.). […] Approximately 50 nl cRNA (about 50 ng) was injected for KCNQ1, KCNQ4, and KCNQ5 using a Nanoject microinjector (Drummond, Broomall, Pa., USA). For co-expression of KCNQ2 and KCNQ3 and of KCNQ1 and KCNE1, cRNA's were mixed in equal molar ratios before injection of approximately 50 nl. […] Oocytes were kept in Culture Barth solution at 19° C. which was changed daily and currents were recorded after 3 to 5 days.
(§5) KCNQ channel currents expressed in Xenopus laevis oocytes were recorded using a two-electrode voltage-clamp. […] The oocytes were placed in custom built perfusion chambers connected to a continuous flow system and impaled with a current electrode and a voltage-clamp electrode pulled from borosilicate glass on a Flaming/Brown Micropipette Puller (Sutter Instruments Co, Novato, Calif., USA).
(§6) All compounds were dissolved in DMSO to obtain concentrated stock solutions. On the day of electrophysiological experiments the stock solutions were thawed and diluted in recording solution to their final concentrations. The final DMSO concentration never exceeded 0.1%. Compound delivery was performed using a custom built multi-barrel apparatus connected to the flow system.
(§7) Data were acquired by means of an Axograph X software (Axograph Scientific, Sydney, AU) and analyzed using Graph Pad Prism (GraphPad Software Inc., CA, USA). […]
(§8) After steady channel current was recorded in the presence of Retigabine at its EC75, recorded oocyte was washed with the recording solution until its steady current returned to its normal level without the presence of any drugs. Then the channel steady current was recorded in the presence of the test compound at its EC75. The percent efficacy was then expressed as: % efficacy=(C2/C 1)×100 where C2 is the recorded steady current in the presence of follow-on compound at its EC75 and C1 is the recorded steady current in the presence of Retigabine at its EC75.

The next test has as its target KCNQ4 (Homo sapiens, UniProt P56696). Briefly: Two-electrode voltage-clamp in Xenopus laevis oocytes, KCNQ4. Format: cell-based. The conditions noted are these: oocyte expression, at EC75. The method, then:
as §4, §5, §6, §7, §8
(In general: In two-electrode clamp one electrode senses voltage and the other passes current.)

Another test concerns the target KCNQ5 (Homo sapiens, UniProt Q9NR82). Briefly: Two-electrode voltage-clamp in Xenopus laevis oocytes, KCNQ5. Format: cell-based. The settings on record: oocyte expression, at EC75. The method, then: as §4, §5, §6, §7, §8
The target in the next test is KCNQ1/NE1 (Homo sapiens, UniProt P51787). Briefly: Two-electrode voltage-clamp in Xenopus laevis oocytes, KCNQ1/KCNE1. The class given is cell-based. Details: dose or concentration left out as unconfirmed. The conditions noted are these: oocyte expression. The method, then: as §4
KCNQ1/NE1, sequence (P51787 whole entry): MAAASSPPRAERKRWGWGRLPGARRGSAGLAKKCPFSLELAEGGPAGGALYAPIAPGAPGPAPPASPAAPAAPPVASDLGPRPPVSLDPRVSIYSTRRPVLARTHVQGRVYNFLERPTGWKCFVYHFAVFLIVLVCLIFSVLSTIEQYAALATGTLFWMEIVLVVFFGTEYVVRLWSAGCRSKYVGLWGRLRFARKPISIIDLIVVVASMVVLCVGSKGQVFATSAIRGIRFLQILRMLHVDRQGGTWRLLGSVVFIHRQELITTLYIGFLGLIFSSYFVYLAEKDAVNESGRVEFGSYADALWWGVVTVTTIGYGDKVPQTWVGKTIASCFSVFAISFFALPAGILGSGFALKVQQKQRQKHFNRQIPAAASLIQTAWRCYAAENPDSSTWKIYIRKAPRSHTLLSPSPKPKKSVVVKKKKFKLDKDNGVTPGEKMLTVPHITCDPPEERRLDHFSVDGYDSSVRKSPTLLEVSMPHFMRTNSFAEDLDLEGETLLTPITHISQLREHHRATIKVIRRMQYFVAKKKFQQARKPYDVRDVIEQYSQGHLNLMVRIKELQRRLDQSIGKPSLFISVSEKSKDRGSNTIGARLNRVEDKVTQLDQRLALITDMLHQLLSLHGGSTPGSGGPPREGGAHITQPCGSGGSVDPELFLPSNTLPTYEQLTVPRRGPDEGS
KCNQ channel currents expressed in Xenopus laevis oocytes were recorded using a two-electrode voltage-clamp. […]
as §7, §8

The target of the next test is T1, KCNQ2 channels (Homo sapiens, UniProt O43526).
T1 construct: expressed in transfected cells; host or cells: CHO cells
T1 sequence (O43526 whole entry): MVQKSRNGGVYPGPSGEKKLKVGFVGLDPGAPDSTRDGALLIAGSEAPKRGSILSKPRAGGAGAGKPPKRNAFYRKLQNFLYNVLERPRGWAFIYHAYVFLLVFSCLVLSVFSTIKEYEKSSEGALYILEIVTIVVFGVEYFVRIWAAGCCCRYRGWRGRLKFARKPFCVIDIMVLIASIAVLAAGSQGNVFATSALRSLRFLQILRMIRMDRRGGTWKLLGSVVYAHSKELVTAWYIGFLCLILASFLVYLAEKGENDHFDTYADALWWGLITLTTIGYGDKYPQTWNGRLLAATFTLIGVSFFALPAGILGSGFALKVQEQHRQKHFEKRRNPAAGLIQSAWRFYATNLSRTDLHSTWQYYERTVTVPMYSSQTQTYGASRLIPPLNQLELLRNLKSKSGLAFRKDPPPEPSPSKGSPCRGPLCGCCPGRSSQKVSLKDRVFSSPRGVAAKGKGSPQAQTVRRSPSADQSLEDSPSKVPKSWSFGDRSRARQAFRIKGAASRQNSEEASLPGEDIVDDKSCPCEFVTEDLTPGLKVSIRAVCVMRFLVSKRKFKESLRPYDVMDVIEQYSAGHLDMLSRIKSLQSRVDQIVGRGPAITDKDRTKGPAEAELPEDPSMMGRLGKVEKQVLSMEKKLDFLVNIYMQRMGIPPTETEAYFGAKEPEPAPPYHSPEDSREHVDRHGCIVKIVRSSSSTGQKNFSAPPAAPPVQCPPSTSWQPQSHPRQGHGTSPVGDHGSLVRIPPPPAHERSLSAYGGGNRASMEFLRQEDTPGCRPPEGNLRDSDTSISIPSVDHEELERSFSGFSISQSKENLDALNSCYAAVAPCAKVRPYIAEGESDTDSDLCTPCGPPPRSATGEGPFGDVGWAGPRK
Briefly: Potassium ion efflux, KCNQ2 channels expressed in CHO cells. The class given is cell-based. The procedure:
Using natively expressed M-currents present in differentiated pheochromocytoma (PC-12) cells and CHO cells transfected with KCNQ2 and hERG potassium channels, the in vitro activity of compound A on potassium ion efflux was determined.
The EC50 values for retigabine and compound A on the activation of KCNQ2 channels expressed in CHO cells were determined on three separate occasions in triplicate.

Another test concerns the target KCNQ1 (Homo sapiens, UniProt P51787). Put plainly: Two-electrode voltage-clamp in Xenopus laevis oocytes, KCNQ1. Format: cell-based. Details: KCNQ1 Block (%): dose or concentration left out as unconfirmed. The settings on record: oocyte expression. The procedure:
as §4, §5, §6, §7, §8

In the case of `CC(C)(C)CC(=O)Nc1c(Cl)cc(N2CCc3ccccc3C2)cc1C(F)(F)F`, the ED50 in test [1] was greater than 12 mg/kg.

For the compound `O=C(CCC1CCCC1)Nc1c(Cl)cc(N2CCc3ccccc3C2)cc1C(F)(F)F`, the ED50 in test [1] was greater than 12 mg/kg.

In the case of `Cc1cc(N2CCc3ccccc3C2)cc(C)c1NC(=O)CC(C)(C)C`, in test [1], the ED50 was in the range of 0.12 to 1.2 mg/kg.

Turning to `CC(C)(C)CC(=O)Nc1c(Cl)cc(N2CCc3cc(F)ccc3C2)cc1C(F)(F)F`, in test [1], the ED50 was greater than 12 mg/kg.

`Cc1cc(N2CCc3ccccc3C2)cc(Cl)c1NC(=O)CC(C)(C)C`: in test [1], the ED50 is 0.12 to 1.2 mg/kg.

Consider `Cc1cc(N2CCc3ccc(F)cc3C2)cc(C)c1NC(=O)CC(C)(C)C`, for which the ED50 in test [1] was in the range of 0.12 to 1.2 mg/kg.

Regarding `Cc1cc(N2CCc3cc(F)ccc3C2)cc(Cl)c1NC(=O)CC(C)(C)C`, the 50% effective dose (ED50) in test [1] was greater than 12 mg/kg.

In the case of `Cc1cc(N2CCc3cc(C(F)(F)F)ccc3C2)cc(Cl)c1NC(=O)CC(C)(C)C`, the 50% effective dose (ED50) in test [1] was greater than 12 mg/kg.

Consider `CC(C)(C)CC(=O)Nc1c(Cl)cc(N2CCc3cc(C(F)(F)F)ccc3C2)cc1C(F)(F)F`, for which the 50% effective dose (ED50) in test [1] is greater than 12 mg/kg.

With `Cc1cc(N2CCc3cc(C(F)(F)F)ccc3C2)cc(C)c1NC(=O)CC(C)(C)C`, the ED50 in test [2] and in test [1] was 0.12 to 1.2 mg/kg each time.

Regarding `O=C(CCC1CCCC1)Nc1c(Cl)cc(N2CCc3cc(F)ccc3C2)cc1C(F)(F)F`, the 50% effective dose (ED50) in test [1] was greater than 12 mg/kg.

For `Cc1cc(N2CCc3cc(Cl)ccc3C2)cc(C)c1NC(=O)CC(C)(C)C`, in test [1], the ED50 was 0.12 to 1.2 mg/kg.

As for `CC(C)(C)CC(=O)Nc1c(Cl)cc(N2CCc3cc(Cl)ccc3C2)cc1C(F)(F)F`, the median effective dose (ED50) in test [1] is greater than 12 mg/kg.

With `Cc1cc(N2CCc3ccc(F)cc3C2)cc(Cl)c1NC(=O)CC(C)(C)C`, in test [1], the 50% effective dose (ED50) is 0.12 to 1.2 mg/kg.

`Cc1cc(N2CCc3cc(Cl)ccc3C2)cc(Cl)c1NC(=O)CC(C)(C)C`: in test [1], the ED50 lay in the range of 0.12 to 1.2 mg/kg.

`CC(C)(C)CC(=O)Nc1c(Cl)cc(N2CCc3ccc(F)cc3C2)cc1C(F)(F)F`: the ED50 in test [1] is greater than 12 mg/kg.

Turning to `CC(C)(C)CC(=O)Nc1ccc(N2CCc3cc(F)ccc3C2)cc1Cl`, in test [1], the 50% effective dose (ED50) was greater than 12 mg/kg.

`CC(C)(C)CC(=O)Nc1ccc(N2CCc3cc(F)ccc3C2)cc1C(F)(F)F`: the ED50 in test [1] lay in the range of 0.12 to 1.2 mg/kg.

As to `CC(C)(C)CC(=O)Nc1ccc(N2CCc3cc(C(F)(F)F)ccc3C2)cc1Cl`, in test [1], the 50% effective dose (ED50) is greater than 12 mg/kg.

As to `Cc1cc(N2CCc3ccc(C(F)(F)F)cc3C2)cc(C)c1NC(=O)CC(C)(C)C`, the ED50 in test [2] and in test [1] was 0.12 to 1.2 mg/kg in each case.

Regarding `COc1cc(N2CCc3ccccc3C2)cc(C)c1NC(=O)CC(C)(C)C`, the median effective dose (ED50) in test [1] fell in the range of 0.12 to 1.2 mg/kg.

`CC(C)(C)CC(=O)Nc1c(Cl)cc(N2CCc3ccccc3C2)cc1OC(F)(F)F`: the 50% effective dose (ED50) in test [1] is greater than 12 mg/kg.

With `COc1cc(N2CCc3ccccc3C2)cc(OC)c1NC(=O)CC(C)(C)C`, the ED50 in test [2] and in test [1] was 0.12 to 1.2 mg/kg throughout.

For the compound `CC(C)(C)CC(=O)Nc1ccc(N2CCc3ccc(C(F)(F)F)cc3C2)cc1C(F)(F)F`, the ED50 in test [1] was in the range of 0.12 to 1.2 mg/kg.

Consider `COc1ccc2c(c1)CCN(c1cc(C)c(NC(=O)CC(C)(C)C)c(C)c1)C2`, for which, in test [1], the median effective dose (ED50) was greater than 12 mg/kg.

Regarding `Cc1cc(N2CCc3cc(F)ccc3C2)cc(C)c1NC(=O)CC(C)(C)C` [drawing 119], the ED50 in test [2] and in test [1] was 0.12 to 1.2 mg/kg throughout.

Regarding `CCOC(=O)Nc1ccc(NCc2ccc(F)cc2)cc1N` [retigabine, N-[2-amino-4-(4-fluorobenzylamino)phenyl]carbamic acid, ethyl ester, reference compound], the “KCNQ2/3 Efficacy Relative to Retigabine (%)” value on KCNQ2/3 stood at 100%. Besides, on KCNQ4, the “KCNQ4 Efficacy Relative to Retigabine (%)” value was determined as 100%. The “KCNQ5 Efficacy Relative to Retigabine (%)” value on KCNQ5 came out at 100%. Further, the “KCNQ1/NE1 Block (%)” value on KCNQ1/NE1 turned out to be 4.3%. This compound returned a 50% effective concentration (EC50) on KCNQ2 channels of 291 nM. For the same compound, the “KCNQ1 Block (%)” value at KCNQ1 came to 12%.

A word on the ED50: it is the dose at which the effect has come halfway, by size or by number of responders. A word on the EC50: it is the concentration that produces a half-maximal response.
